# Data taken from patent publication US20160296506A1, “Methods and Compositions for Treating HIV Infection” (priority 2012, published 2016).
# How the values were obtained:
# [1] = system: carbamoyl-phosphate synthetase 2, aspartate transcarbamylase, and dihydroorotase (CAD); assay: CAD activity (phosphorylation at S1859) in IL-2/PHA-stimulated CD4 T cells; type: cell-based
# Procedure: (§1) PLD inhibitors modulate intracellular deoxyribonucleotides levels. […] CD4 T-cells experiments were performed with ani-CD3/CD28-currently completing experiments with IL-2/phytohaemagglutinin (PHA)-stimulated CD4 T cells.
# IV pharmacokinetics = type: in vivo, mice; conditions: dose 1 mg/kg; for half-life / Vd: mouse, plasma; for Vd: read-out: Vdss
# HIV-1 [2] = assay: HIV-1 infection of U87.CD4.CXCR4 cells; type: cell-based; conditions: data not shown
# HIV-1 [3] = assay: HIV-1 infection in PMA-stimulated THP-1 cells (flow cytometry); type: cell-based; conditions: 10 μM, 4 h pretreatment, HIV-1-GFP, 72 h post-infection, FIG. 10
# [4] = PO plasma and brain levels; type: in vivo, mice; conditions: dose 10 mg/kg
# Procedure: The pharmacokinetic behavior of a representative disclosed PLD inhibitor of the present invention was assessed following […]. Briefly, mice were administered a single dose of a representative PLD inhibitor, either VUO364739 or VU359595 (10 mg/kg) by either intravenous injection or by oral administration. Plasma samples and tissue samples (brain) were isolated at various time points following euthanizing animal. The samples were flash frozen and stored at −80° C. Analysis was carried out by LC-MS/MS following extraction.
# Plasma protein binding = type: in vitro ADME
# THP-1 cells = assay: dNTP levels in THP-1 cells (HPLC-MS); type: cell-based; conditions: statement
# Procedure: Briefly, Undifferentiated THP-1 cells (5×10̂6 cells/well) were treated with various inhibitors (10 μM EVJ, 10 μM JWJ, 100 nM rapamycin, 250 nM torin1, or 1 μM Go6976) for 16 h before harvest and extraction for HPLC-MS analysis of dNTP levels. Data represents analysis of triplicate samples.
# Briefly, THP-1 cells (2.5×10^5 cells in 0.5 mL of c-RPMI (5×10^5/mL)/well) were seeded into 24-well plates and differentiated with 0.1 μM PMA for 24 h. Cells were then pretreated for 4 h with inhibitors (10 μM EVJ, 10 μM JWJ, 100 nM rapamycin, 250 nM torin1, or 10 μM concentration of two AKT inhibitors for comparison). Cells were then infected with HIV-1-GFP in the continued presence of inhibitors. Levels of infection were determined by flow cytometry (BD Biosciences FACSCalibur) 72 h post-infection. […] This difference is likely due to an increase in PLD1 activity in PMA-treated THP-1 cells.
# CAD = assay: dNTP levels with CAD overexpression; type: cell-based; conditions: FIG. 13
# U87MG cells = assay: SILAC proteomic analysis on U87MG cells; type: cell-based; conditions: EVJ on U87MG cells, FIG. 12
# Procedure: A SILAC proteomic analysis was conducted using the PLD1-preferring inhibitor EVJ on U87MG cells.
# primary T-cells = assay: dNTP increases in stimulated primary CD4 T-cells; type: cell-based, human; conditions: FIG. 14
# Procedure: as §1
# HIV-1 [5] = assay: HIV-1 replication in activated primary CD4+ T cells; type: cell-based, human; conditions: 10 μM, PHA/IL2 activated after EVJ treatment, FIG. 14
structure (smiles),measurement,setting,value
CNC(=O)c1cccc(-c2ccc3c(N4CCOC[C@@H]4C)nc(N4CCOC[C@@H]4C)nc3n2)c1 [AZD2014],"activity of CAD, phosphorylation at activation residue S1859",[1],suppress activity
"O=C(NCCN1CCC2(CC1)C(=O)NCN2c1cccc(F)c1)c1ccc2ccccc2c1 [No. 1, N-(2-(1-(3-fluorophenyl)-4-oxo-1,3,8-triazaspiro [4.5]decan-8-yl)ethyl)-2-naphthamide]",CI,IV pharmacokinetics,60.7 mL/min/kg
same,half-life,IV pharmacokinetics,0.78 h
same,Vd,IV pharmacokinetics,4.7 L/kg
same,HIV-1 infection of U87.CD4.CXCR4 cells,HIV-1 [2],inhibit HIV-1 infection
same,"HIV-1 replication in THP-1 cells, undifferentiated vs PMA-differentiated",HIV-1 [3],inhibits HIV-1 replication under both conditions
same,Brain (ng/kg),[4],BLQ
same,Brain: Plasma,[4],BLQ
same,Plasma,[4],29 ng/kg
same,Plasma Protein Binding (% bound),Plasma protein binding,98.1 % bound
CCC(=O)N1CCN(c2ccc(-n3c(=O)ccc4cnc5ccc(-c6cnc7ccccc7c6)cc5c43)cc2C(F)(F)F)CC1 [Torin1],"activity of CAD, phosphorylation at activation residue S1859",[1],suppress activity
same,Deoxyribonucleotide (dNTP) levels,THP-1 cells,potently reduced
NC(=O)NO [Hydroxyurea],"activity of CAD, phosphorylation at activation residue S1859",[1],comparative modest effects
"NC1(c2ccc(-c3nc4ccn5c(=O)[nH]nc5c4cc3-c3ccccc3)cc2)CCC1 [MK2206, reference compound]",dNTP levels upon CAD over expression,CAD,continues to block dNTP levels
same,Deoxyribonucleotide (dNTP) levels,THP-1 cells,potently reduced
"C[C@@H](CN1CCC(n2c(=O)[nH]c3cc(Br)ccc32)CC1)NC(=O)[C@@H]1C[C@@H]1c1ccccc1 [No. 2, (1R,2S)-N-((S)-1-(4-(5-bromo-2-oxo-2,3-dihydro-1H-benzo[d]imidazol-1-yl)piperidin-1-yl)propan-2-yl)-2-phenylcyclopropane carboxamide]","activity of CAD, phosphorylation at activation residue S1859",[1],suppress activity
same,CI,IV pharmacokinetics,61.5 mL/min/kg
same,half-life,IV pharmacokinetics,1.52 h
same,Vd,IV pharmacokinetics,8.1 L/kg
same,HIV-1 infection of U87.CD4.CXCR4 cells,HIV-1 [2],inhibit HIV-1 infection
same,signaling pathway changed (network analysis),U87MG cells,mTORC1 signaling is the predominant signaling pathway changed
same,dNTP levels upon CAD over expression,CAD,partially rescues the dNTP biosynthetic phenotype
same,"HIV-1 replication in THP-1 cells, undifferentiated vs PMA-differentiated",HIV-1 [3],more robust effect on HIV-1 replication in PMA-differentiated THP-1 cells
same,Brain,[4],29 ng/kg
same,Plasma,[4],39.9 ng/kg
same,Kp,"[4]; mouse, brain/plasma",0.73
same,dNTP increases in CD4-receptor stimulated primary T-cells from human donors,primary T-cells,blunt dNTP increases
same,HIV-1 replication in activated primary CD4+ T cells,HIV-1 [5],inhibits HIV-1 replication
same,Plasma Protein Binding (% bound),Plasma protein binding,97.9 % bound
